Here are results for two compounds from ChEMBL document CHEMBL1201862, “PubChem BioAssay data set” (2004).

Test in all cases: NCI-60 cell line screen, 48 h
Test [1] has as its system ACHN.
Test [2] relates to HL-60.
In test [3] the test system is SK-MEL-28.
Test [4] deals with NCI-H23.
Test [5] relates to HCT-116.
Test [6] has as its system SNB-75.
Test [7] has as its system MDA-MB-435.
Test [8] deals with DU-145.
The subject of test [9] is 786-0.
Test [10] relates to SNB-19.
For test [11], the system named is HOP-92.
Test [12] concerns SF-539.
Test [13] relates to SW-620.
The test system of test [14] is Malme-3M.
The test system of test [15] is LOX IMVI.
Test [16] relates to SF-295.
In test [17] the test system is CAKI-1.
Test [18] has as its system RPMI-8226.
Test [19] has as its system SK-MEL-2.
Test [20] concerns MOLT-4.

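Five concentrations, 48 hours, 96-well plates. GI50 is the concentration that inhibits growth by half.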 The source made the active and inactive calls. Cut-off read from the data, not from the text of the source: active = GI50 up to about 1.1 µM and inactive = higher.

As to `CSc1nc(=O)c(C#N)c(-c2ccccc2)n1C1OC(COC(C)=O)C(OC(C)=O)C(OC(C)=O)C1OC(C)=O` (stereo not given), the GI50 in [1] is > 100 µM (inactive); in [2] it was > 100 µM (inactive); in test [3], > 100 µM (inactive); in test [4] it was > 100 µM (inactive); in test [5], 79.4 µM (inactive); in [6], 42.5 µM (inactive). Also, the GI50 in test [7] was > 100 µM (inactive); in test [8] it was > 100 µM (inactive); in test [9], 82.6 µM (inactive); in test [10], > 100 µM (inactive); in test [11], 46.9 µM (inactive); in test [12], > 100 µM (inactive). Besides, the GI50 in [13] was > 100 µM (inactive); in test [14], 69.3 µM (inactive); in [15], 98.4 µM (inactive); in [16] it was > 100 µM (inactive); in test [17], > 100 µM (inactive); in test [18], > 100 µM (inactive). Further, the GI50 in [19] and in test [20] was > 100 µM (inactive) each time.

Consider `CCCCCCCCCCCC/C=C\CC[C@@H](O)[C@H](O)CC[C@H](O)[C@@H]1CC[C@@H](CCCCCCCC2=C[C@H](C)OC2=O)O1` [GIGANTRIONENIN], for which the GI50 in test [1] was 1.17 µM (inactive); in [2], 2.17 µM (inactive); in test [3], 2.94 µM (inactive); in test [4], 0.11 µM (active); in test [5], 1.87 µM (inactive); in [6], 7.66 µM (inactive). The GI50 is 0.883 µM (active) in [7]; 3.66 µM (inactive) in test [8]; 6.21 µM (inactive) in [9]; 1.83 µM (inactive) in [10]; 2.47 µM (inactive) in test [11]; > 10 µM (inactive) in test [12]. Moreover, the GI50 was 3.35 µM (inactive) in test [13]; 13.7 µM (inactive) in test [14]; 1.31 µM (inactive) in test [15]; 1.93 µM (inactive) in test [16]; 15.8 µM (inactive) in test [17]; 2.65 µM (inactive) in test [18]. Also, the GI50 is 2.24 µM (inactive) in [19] and 2.17 µM (inactive) in test [20].
